Measured values: patent publication US9433621B2, “Substituted pyridine and pyrimidine derivatives and their use in treating viral infections” (Merck Sharp & Dohme Corp., priority 2010, dated 2016)

What follows are compounds tested on HCV replicon (assay: Cell-Based HCV Replicon Assay). Conditions: Hepatitis C virus, 72 h; Table IV; replicon cells, day 3, real time PCR; EC90 = concentration for ΔCT=3.2 over baseline; read-out: EC90.
Method: Cell-Based HCV Replicon Assay
To measure cell-based anti-HCV activity of the compounds of the present invention, replicon cells were seeded at 5000 cells/well in 96-well collagen I-coated Nunc plates in the presence of the compound of the invention. Various concentrations of a compound of the invention, typically in 10 serial 2-fold dilutions, were added to the assay mixture, the starting concentration of the compound ranging from 25 μM to 1 μM. The final concentration of DMSO was 0.5%, fetal bovine serum was 10%, in the assay media. Cells were harvested on day 3 by the addition of 1× cell lysis buffer (Ambion cat #8721). The replicon RNA level was measured using real time PCR (Taqman assay). The amplicon was located in 5B. The PCR primers were: 5B.2F, ATGGACAGGCGCCCTGA; 5B.2R, […]; the probe sequence was FAM-labeled CACGCCATGCGCTGCGG. GAPDH RNA was used as endogenous control and was amplified in the same reaction as NS5B (multiplex PCR) using primers and VIC-labeled probe recommended by the manufacturer (PE Applied Biosystem). The real-time RT-PCR reactions were run on ABI PRISM® 7900HT Sequence Detection System using the following program: 48′C for 30 min, 95′C for 10 min, 40 cycles of 95′C for 15 sec, 60′C for 1 min. The ΔCT values (CT5B-CTGAPDH) were plotted against the concentration of test compound and fitted to the sigmoid dose-response model using Graph Pad PRISM® software. EC50 was defined as the concentration of inhibitor necessary to achieve ΔCT=1 over the projected baseline; EC90 the concentration necessary to achieve ΔCT=3.2 over the baseline. Alternatively, to quantitate the absolute amount of replicon RNA, a standard curve was established by including serially diluted T7 transcripts of replicon RNA in the Taqman assay. All Taqman reagents were from PE Applied Biosystems. Such an assay procedure was described in detail in e.g. Malcolm et al., Antimicrobial Agents and Chemotherapy 50: 1013-1020 (2006).
HCV Replicon assay data for compounds of the invention that were tested were obtained using the above method.

Row | Compound | EC90 [µM]
1 | Cc1nc(NCC2CC2)nc(N[C@@H]2C[C@H](C(C)(F)F)[C@@H](O)[C@H]2O)c1-c1nc2c(C3CC3)nccc2s1 [Example 3056] | 0.007
2 | Cc1nc(N[C@H](C)C2CC2)nc(N[C@@H]2C[C@H](CCO)[C@@H](O)[C@H]2O)c1-c1nc2c(C)nccc2s1 [Example 3561] | 0.023
3 | Cc1nc(NCc2c(F)cccc2F)nc(N[C@@H]2C[C@H](CC#N)[C@@H](O)[C@H]2O)c1-c1nc2c(C3CC3)nccc2s1 [Example 3569] | 0.016

Same assay, conditions: Hepatitis C virus, 72 h; Table V, class codes; replicon cells, day 3, real time PCR; EC90 = concentration for ΔCT=3.2 over baseline; read-out: EC90 (uM) range

Row | Compound | EC90 [µM]
4 | Cc1nc(N)nc(N[C@@H]2C[C@H](C(=O)N3CCOCC3)[C@@H](O)[C@H]2O)c1-c1nc2c(C3CC3)nccc2s1 [Example 4925] | < 0.5
5 | CO[C@@H]1[C@@H](CO)C[C@@H](Nc2nc(N)nc(C)c2-c2nc3c(C)nccc3s2)[C@@H]1O [Example 4907] | < 0.5
6 | C[C@@H](Nc1ncc(-c2nc3c(C4CC4)nccc3s2)c(N[C@@H]2C[C@H](CS(C)(=O)=O)[C@@H](O)[C@H]2O)n1)C1CCC1 [Example 4918] | < 0.5
7 | Cc1cc2sc(-c3c(C)nc(N[C@H](C)C4CC4)nc3N[C@@H]3C[C@H](CO)[C@@H](O)[C@H]3O)nc2cn1 [Example 4952] | < 0.5

Same assay, conditions: Hepatitis C virus; HCV Replicon assay, EC90 range, Table VI; read-out: EC90

Row | Compound | EC90 [µM]
8 | Cc1nc(NC2(C)CCC2)nc(N[C@@H]2C[C@H](CS(C)(=O)=O)[C@@H](O)[C@H]2O)c1-c1nc2c(C)nccc2s1 [Example 5152] | < 0.5
9 | Cc1nc(NCc2c(F)cccc2F)nc(N[C@@H]2C[C@H](CS(=O)(=O)c3cc(F)cc(F)c3)[C@@H](O)[C@H]2O)c1-c1nc2c(N)nccc2s1 [Example 5209] | < 0.5
10 | Cc1nc(NCC2CC2)nc(N[C@@H]2C[C@H](c3nccs3)[C@@H](O)[C@H]2O)c1-c1nc2c(C)nccc2s1 [Example 5295] | < 0.5
11 | COCCNc1nc(C)c(-c2nc3c(C)nccc3s2)c(NC2(CO)CCCC2)n1 [Example 5131] | < 0.5
12 | C#CCCNc1nc(C)c(-c2nc3c(C4CC4)nccc3s2)c(N[C@@H]2C[C@H](C(C)(F)F)[C@@H](O)[C@H]2O)n1 [Example 5189] | < 0.5
13 | Cc1nc(N[C@H](C)C2CC2)nc(N[C@@H]2C[C@H](NC(=O)NCc3ccc(C(F)(F)F)cc3)[C@@H](O)[C@H]2O)c1-c1nc2c(C3CC3)nccc2s1 [Example 5090] | < 0.5
14 | Cc1nc(NCC2(O)CCCC2)nc(NC2(C)CCC2)c1-c1nc2c(C)nccc2s1 [Example 5222] | < 0.5
15 | COCCNc1nc(C)c(-c2nc3c(C)nccc3s2)c(NC2(C)CCC2)n1 [Example 5215] | < 0.5
16 | Cc1nc(NCCC(C)C)nc(N[C@@H]2C[C@H](C(F)F)[C@@H](O)[C@H]2O)c1-c1nc2c(C3CC3)nccc2s1 [Example 5193] | < 0.5
17 | Cc1nc(N[C@H](C)COC(C)C)nc(N[C@@H]2C[C@H](C(C)(C)O)[C@@H](O)[C@H]2O)c1-c1nc2c(C)nccc2s1 [Example 5256] | < 0.5
18 | CO[C@@H]1CCC[C@@H]1Nc1nc(C)c(-c2nc3c(C4CC4)nccc3s2)c(N[C@@H]2C[C@H](CO)[C@@H](O)[C@H]2O)n1 [Example 5142] | < 0.5
19 | Cc1cc(S(=O)(=O)C[C@H]2C[C@@H](Nc3nc(N)nc(C)c3-c3nc4c(C)nccc4s3)[C@H](O)[C@@H]2O)ccc1F [Example 5020] | < 0.5
20 | Cc1nc(NCC2CC2)nc(N[C@@H]2C[C@H](C(C)(C)S(C)(=O)=O)[C@@H](O)[C@H]2O)c1-c1nc2c(C)nccc2s1 [Example 5070] | < 0.5
21 | CO[C@H]1CCCC[C@@H]1Nc1nc(C)c(-c2nc3c(C)nccc3s2)c(N[C@@H]2C[C@H](C(C)(C)O)[C@@H](O)[C@H]2O)n1 [Example 5137] | 0.5 to 5
22 | Cc1nc(N)nc(NC2(CO)CCCC2)c1-c1nc2c(C)nccc2s1 [Example 5130] | < 0.5
23 | COC(=O)NC(C)(C)[C@H]1C[C@@H](Nc2nc(NC3CC3)nc(C)c2-c2nc3c(C)nccc3s2)[C@H](O)[C@@H]1O [Example 5050] | < 0.5
24 | Cc1nc(NCC(F)(F)C(F)(F)F)nc(NC2(CO)CC2)c1-c1nc2c(C)nccc2s1 [Example 5134] | < 0.5
25 | Cc1nc(N[C@H](C)C2CCC2)nc(N[C@@H]2C[C@H](C(C)(F)F)[C@@H](O)[C@H]2O)c1-c1nc2c(C3CC3)nccc2s1 [Example 5184] | < 0.5
